Experiment [1] concerns the target Kappa-type opioid receptor (Cavia porcellus, UniProt P41144).
Experiment [2] addresses Mu-type opioid receptor (Cavia porcellus, UniProt P97266).
The target of experiment [3] is 5-hydroxytryptamine receptor 5A (Rattus norvegicus, UniProt P35364).
Experiment [4] concerns the target T1, 5-hydroxytryptamine receptor 2C (Rattus norvegicus, UniProt P08909).
T1 sequence (P08909 whole entry): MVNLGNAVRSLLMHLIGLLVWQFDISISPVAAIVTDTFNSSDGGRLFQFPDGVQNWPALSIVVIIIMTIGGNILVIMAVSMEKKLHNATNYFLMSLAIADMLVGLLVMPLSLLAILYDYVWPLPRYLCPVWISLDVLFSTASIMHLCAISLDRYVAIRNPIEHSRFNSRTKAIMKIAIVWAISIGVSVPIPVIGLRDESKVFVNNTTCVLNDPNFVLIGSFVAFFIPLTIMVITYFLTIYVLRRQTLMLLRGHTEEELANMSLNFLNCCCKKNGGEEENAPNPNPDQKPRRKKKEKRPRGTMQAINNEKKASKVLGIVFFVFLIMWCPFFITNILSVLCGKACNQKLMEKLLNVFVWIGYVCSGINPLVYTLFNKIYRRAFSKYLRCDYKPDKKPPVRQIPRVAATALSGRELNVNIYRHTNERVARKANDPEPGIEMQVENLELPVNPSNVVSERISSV

Non-standard residues stand in square brackets, D forms with d. Residues, ends and D or L forms follow the SMILES beside them. NMeF = CN[C@@H](Cc1ccccc1)C(=O)O Where only a bound is given, the exact number is not on record here.

Sequence of Kappa-type opioid receptor (P41144 whole entry): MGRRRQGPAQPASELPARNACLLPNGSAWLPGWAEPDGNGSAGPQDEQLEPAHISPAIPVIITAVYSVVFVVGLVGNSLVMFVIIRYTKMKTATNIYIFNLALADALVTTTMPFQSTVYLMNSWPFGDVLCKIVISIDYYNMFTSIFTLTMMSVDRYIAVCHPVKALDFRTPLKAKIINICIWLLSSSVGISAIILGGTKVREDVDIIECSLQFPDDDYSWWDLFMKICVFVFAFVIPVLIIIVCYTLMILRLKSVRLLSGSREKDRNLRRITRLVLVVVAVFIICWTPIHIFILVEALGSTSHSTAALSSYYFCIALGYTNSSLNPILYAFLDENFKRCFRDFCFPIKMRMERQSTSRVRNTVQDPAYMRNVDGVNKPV
Sequence of Mu-type opioid receptor (P97266 whole entry): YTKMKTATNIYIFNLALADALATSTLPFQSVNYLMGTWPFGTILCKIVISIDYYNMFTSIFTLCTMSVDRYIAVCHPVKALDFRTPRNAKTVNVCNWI
Sequence of 5-hydroxytryptamine receptor 5A (P35364 whole entry): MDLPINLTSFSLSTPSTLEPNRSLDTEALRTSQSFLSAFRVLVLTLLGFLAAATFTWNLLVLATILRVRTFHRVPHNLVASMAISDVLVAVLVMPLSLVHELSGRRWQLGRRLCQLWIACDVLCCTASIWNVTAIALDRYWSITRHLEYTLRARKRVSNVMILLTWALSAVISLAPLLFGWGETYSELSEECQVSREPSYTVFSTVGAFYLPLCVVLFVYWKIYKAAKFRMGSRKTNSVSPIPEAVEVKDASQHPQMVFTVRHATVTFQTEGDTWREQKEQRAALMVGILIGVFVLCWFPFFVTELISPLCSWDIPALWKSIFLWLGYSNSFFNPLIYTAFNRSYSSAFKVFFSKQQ

Consider “H-YGGFMTSEKSQTPLVTLFKNAIVKNAHKKGQ-OH [Beta-Endorphin]”, for which the inhibitory constant (Ki) (commonly the dissociation constant of the complex between target and ligand, obtained from inhibition or displacement) in experiment [1] stood at 43.5 nM; in experiment [2], 2.3 nM.
Take `Oc1ccc2c3c1OC1c4[nH]c5ccccc5c4CC4(O)[C@H](C2)N(CC2CC2)CCC314` (stereo partly specified) [NALTRINDOLE]: the Ki in experiment [1] stood at 7.8 nM; in experiment [2] it was 0.2 nM.
`CC(C)C[C@H](NC(=O)[C@H](Cc1ccccc1)NC(=O)CNC(=O)[C@@H](CO)NC(=O)[C@@H](N)Cc1ccc(O)cc1)C(=O)N[C@H](C(=O)O)[C@@H](C)O` [DSLET-OH]: the Ki is above 10000 nM in experiment [1] and 20.6 nM in experiment [2].
Taken in the same sequence, the figures for `C=CCN1CC[C@]23c4c5ccc(O)c4O[C@H]2[C@@H](O)C=CC3[C@H]1C5` (stereo partly specified) [NALORPHINE - HCI] were 1.7 nM and 1.9 nM.
As for `COc1ccc2c3c1OC1C(O)C=CC4C(C2)N(C)CCC341` (stereo unspecified) [NSC_223652], the inhibition constant Ki in experiment [1] is above 10000 nM; in experiment [2], 152 nM.
As for `CC(C)=CCN1CC[C@@]2(C)c3cc(O)ccc3C[C@@H]1[C@@H]2C` [Talwin], the Ki in experiment [1] worked out at 4.4 nM; in experiment [2], 5.7 nM.
On to `CN1CC[C@]23CCCC[C@H]2[C@H]1Cc1ccc(O)cc13` [CAS_5985-38-6], for which the values for the inhibition constant (Ki) in experiment [1] and in experiment [2] were 3.4 nM and 0.3 nM, respectively.
For `CC(C)C[C@@H](NC(=O)[C@H](Cc1ccccc1)NC(=O)CNC(=O)[C@@H](C)NC(=O)[C@@H](N)Cc1ccc(O)cc1)C(=O)O` [[D-Ala2-D-Leu5]enkephalin] the same measures were above 10000 nM and 3.2 nM.
Taken in the same sequence, the figures for `C=C1CCC2(O)C3Cc4ccc(O)c5c4C2(CCN3CC2CC2)C1O5` (stereo unspecified) [NSC_119501] were 0.3 nM and 0.3 nM.
Turning to `C[C@@H](NC(=O)[C@@H](N)Cc1ccc(O)cc1)C(=O)NCC(=O)N(C)[C@@H](Cc1ccccc1)C(=O)NCCO` [[tyrosyl-3,5-3H(N)]-D-Ala2-Mephe4-glyol5-enkephalin], the figures for the Ki in experiment [1] and in experiment [2] were 1840 nM and 1.1 nM, respectively.
Compound `CC[C@H](C)[C@H](NC(=O)[C@H](CCCN=C(N)N)NC(=O)[C@H](CCCN=C(N)N)NC(=O)[C@H](CC(C)C)NC(=O)[C@H](Cc1ccccc1)NC(=O)CNC(=O)CNC(=O)[C@@H](N)Cc1ccc(O)cc1)C(=O)O` returned a Ki in experiment [1] of 1.4 nM.
As to `NCC(O)c1ccc(O)c(O)c1` (stereo not drawn) [Noradrenaline,(+)], the Ki in experiment [3] and in experiment [4] was above 10000 nM throughout.
As to `CN1CCC2(C)c3cc(O)ccc3CC1C2(C)CCC(=O)CCC1CCCC1` (stereo unspecified) [CAS_115077], the Ki in experiment [1] was found to be 0.2 nM; in experiment [2], 0.1 nM.
Take `Oc1ccc2c3c1OC1C(O)C=CC4C(C2)NCCC341` (stereo unspecified) [NORMORPHINE]: the inhibitory constant (Ki) in experiment [1] amounted to 64.5 nM; in experiment [2], 3.9 nM.
With `C[C@@H](O)[C@H](NC(=O)[C@H]1NC(=O)[C@H]([C@@H](C)O)NC(=O)[C@H](CCCN=C(N)N)NC(=O)[C@@H](Cc2c[nH]c3ccccc23)NC(=O)[C@H](Cc2ccc(O)cc2)NC(=O)[C@@H](NC(=O)[C@H](N)Cc2ccccc2)CSSC1(C)C)C(N)=O` [CTAP-NH2], the inhibition constant Ki is 1050 nM in experiment [1] and 0.5 nM in experiment [2].
For `C[C@@H]1[C@@H]2Cc3ccc(O)cc3[C@@]1(C)CCN2CC1CC1` [(SSS)-12-Cyclopropylmethyl-13-methyl-12-aza-tricyclo[9.1.1.0*3,8*]trideca-3(8),4,6-trien-6-ol(cyclazocine)], the Ki in experiment [1] turned out to be 0.1 nM.
With `Oc1ccc2c3c1O[C@H]1c4oc5ccccc5c4C[C@@]4(O)[C@@H](C2)N(CC2CC2)CC[C@]314` [CAS_111555-58-9], the inhibition constant (Ki) was 10.2 nM in experiment [1] and 6.5 nM in experiment [2].
As to `CN(C(=O)[C@@H]1CCCN1C(=O)[C@@H](N)Cc1ccc(O)cc1)[C@@H](Cc1ccccc1)C(=O)N1CCC[C@@H]1C(N)=O` (H-YP[NMeF][dP]-NH2), the inhibition constant (Ki) is above 10000 nM in experiment [1] and 8.1 nM in experiment [2].
`C=CCN1CCC23c4c5ccc(O)c4O[C@@H]2C(=NNC(=O)c2ccccc2)CCC3(O)C1C5` (stereo partly specified): the Ki in experiment [1] was 0.4 nM; in experiment [2] it was 0.2 nM.

These data come from BindingDB's records for PubMed 9686407 (Sri International, 1998).
